Patent US20220288069A1, “INHIBITORS OF TYROSINE KINASE” (BridGene Biosciences, Inc., priority 2019, published 2022)

Experiments:
FGR = target: T1, FGR (Homo sapiens, UniProt P09769); test: Caliper mobility shift kinase inhibition assay, FGR; format: biochemical; conditions: recombinant kinase; enzyme 0.3 nM, ATP 50 μM, incubation 3 hr
T1 construct: purchased BPS 4022
Protocol: (§1) Compounds' inhibition of recombinant kinases (FGR, FLT3, FMS, KIT, or RON) was measured using Caliper mobility shift assay, which is based on the difference in capillary electrophoresis mobility of a fluorescent-tagged peptide as a result of a phosphorylation by the kinase under study. Reactions were started by the addition of various concentrations of a compound (originally in DMSO solution) to a kinase solution in assay buffer followed by addition of a mixture of ATP and a fluorescent-tagged peptide substrate in assay buffer. Concentrations of the enzyme, ATP and the peptide were pre-optimized so that 15% substrate conversion to ensure initial velocity measurements. After incubation for 3 hours at room temperature, the kinase reaction was quenched by the addition of a concentrated EDTA solution before analysis on a LabChip EZ Reader II to yield percentage inhibition by comparing to the DMSO control.
(§2) Table 2 below summarizes the assay conditions for the characterization of the kinase inhibition properties of the disclosed compounds.

FLT3 = target: T2, FLT3 (Homo sapiens, UniProt P36888); test: Caliper mobility shift kinase inhibition assay, FLT3; format: biochemical; conditions: recombinant kinase; enzyme 0.1 nM, ATP 95 μM, incubation 3 hr
T2 construct: purchased ThermoFisher PV3182
T2 sequence (P36888 27-993): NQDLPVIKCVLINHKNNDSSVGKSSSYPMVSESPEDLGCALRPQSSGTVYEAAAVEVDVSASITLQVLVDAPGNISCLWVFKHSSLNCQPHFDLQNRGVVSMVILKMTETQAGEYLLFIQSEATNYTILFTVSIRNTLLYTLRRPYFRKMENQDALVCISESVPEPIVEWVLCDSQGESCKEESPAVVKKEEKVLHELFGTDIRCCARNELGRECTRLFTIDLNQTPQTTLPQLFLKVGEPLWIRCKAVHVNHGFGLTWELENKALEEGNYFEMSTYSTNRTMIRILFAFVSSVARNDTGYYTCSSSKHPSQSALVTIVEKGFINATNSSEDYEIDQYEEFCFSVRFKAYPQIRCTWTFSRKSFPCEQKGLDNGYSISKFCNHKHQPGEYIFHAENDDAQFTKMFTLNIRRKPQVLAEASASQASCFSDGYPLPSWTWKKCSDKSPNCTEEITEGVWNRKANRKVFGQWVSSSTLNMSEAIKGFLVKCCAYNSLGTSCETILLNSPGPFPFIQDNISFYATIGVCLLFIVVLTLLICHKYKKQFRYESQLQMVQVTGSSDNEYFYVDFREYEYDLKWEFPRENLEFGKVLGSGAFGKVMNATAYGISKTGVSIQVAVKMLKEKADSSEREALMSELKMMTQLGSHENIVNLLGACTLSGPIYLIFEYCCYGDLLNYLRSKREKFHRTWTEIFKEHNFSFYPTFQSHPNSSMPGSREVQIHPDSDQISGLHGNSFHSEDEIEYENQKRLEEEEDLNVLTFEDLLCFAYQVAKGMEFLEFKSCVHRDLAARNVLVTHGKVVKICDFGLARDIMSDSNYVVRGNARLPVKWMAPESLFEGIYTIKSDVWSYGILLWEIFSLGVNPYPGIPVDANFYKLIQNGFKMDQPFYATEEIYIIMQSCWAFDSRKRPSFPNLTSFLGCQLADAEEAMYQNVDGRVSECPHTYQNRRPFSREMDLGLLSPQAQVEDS
Protocol: as §1, §2

FMS = target: T3, FMS (Homo sapiens, UniProt P07333); test: Caliper mobility shift kinase inhibition assay, FMS; format: biochemical; conditions: recombinant kinase; enzyme 0.25 nM, ATP 100 μM, incubation 3 hr
T3 construct: purchased Invitrogen PV3249
Protocol: as §1, §2

KIT = target: T4, KIT (Homo sapiens, UniProt P10721); test: Caliper mobility shift kinase inhibition assay, KIT; format: biochemical; conditions: recombinant kinase; enzyme 0.9 nM, ATP 400 μM, incubation 17 hr
T4 construct: purchased BPS 40250
Protocol: as §1, with “After incubation for 3 hours at room temperature, the kinase reaction was quenched by the addition of a concentrated EDTA solution before analysis on a LabChip EZ Reader II to yield percentage inhibition by comparing to the DMSO control.” left out
as §2

RON = target: T5, RON (Homo sapiens, UniProt Q04912); test: Caliper mobility shift kinase inhibition assay, RON; format: biochemical; conditions: recombinant kinase; enzyme 0.4 nM, ATP 20 μM, incubation 3 hr
T5 construct: purchased Invitrogen PV4314
Protocol: as §1, §2

MV4−11 = test: Cell viability assay (CellTiter-Glo), MV4-11; format: cell-based; conditions: Homo sapiens, MV4-11 cells, 72 hr
Protocol: (§3) Cell viability assay was performed based on the following brief procedures. Cells were plated at the density of 5K/well with volume of […] in 96-well white plate and clear bottom plates. 20 μL of veh. or compound was added at proper concentration to the well. The final volume is 200 μL, with final conc. of DMSO32 0.1%, 11 points, triplicates. The cells were then treated at 37° C. in the TC incubator for 72 hr. Equal volume (200 μL) of CellTiter-Glo reagent (Promega) was added to the well and protect from light at room temperature for 15 min. The chemiluminicent was measured with EnSight (Perkin Elmer). GraphPad Prism non-linear regression, Log[inhibitor] response with four parameters were used to calculate GI50.

THP−1 = test: Cell viability assay (CellTiter-Glo), THP-1; format: cell-based; conditions: Homo sapiens, THP-1 cells, 72 hr
Protocol: as §3

Kasumi−1 = test: Cell viability assay (CellTiter-Glo), Kasumi-1; format: cell-based; conditions: Homo sapiens, Kasumi-1 cells, 72 hr
Protocol: as §3

T4 sequence (P10721 26-976): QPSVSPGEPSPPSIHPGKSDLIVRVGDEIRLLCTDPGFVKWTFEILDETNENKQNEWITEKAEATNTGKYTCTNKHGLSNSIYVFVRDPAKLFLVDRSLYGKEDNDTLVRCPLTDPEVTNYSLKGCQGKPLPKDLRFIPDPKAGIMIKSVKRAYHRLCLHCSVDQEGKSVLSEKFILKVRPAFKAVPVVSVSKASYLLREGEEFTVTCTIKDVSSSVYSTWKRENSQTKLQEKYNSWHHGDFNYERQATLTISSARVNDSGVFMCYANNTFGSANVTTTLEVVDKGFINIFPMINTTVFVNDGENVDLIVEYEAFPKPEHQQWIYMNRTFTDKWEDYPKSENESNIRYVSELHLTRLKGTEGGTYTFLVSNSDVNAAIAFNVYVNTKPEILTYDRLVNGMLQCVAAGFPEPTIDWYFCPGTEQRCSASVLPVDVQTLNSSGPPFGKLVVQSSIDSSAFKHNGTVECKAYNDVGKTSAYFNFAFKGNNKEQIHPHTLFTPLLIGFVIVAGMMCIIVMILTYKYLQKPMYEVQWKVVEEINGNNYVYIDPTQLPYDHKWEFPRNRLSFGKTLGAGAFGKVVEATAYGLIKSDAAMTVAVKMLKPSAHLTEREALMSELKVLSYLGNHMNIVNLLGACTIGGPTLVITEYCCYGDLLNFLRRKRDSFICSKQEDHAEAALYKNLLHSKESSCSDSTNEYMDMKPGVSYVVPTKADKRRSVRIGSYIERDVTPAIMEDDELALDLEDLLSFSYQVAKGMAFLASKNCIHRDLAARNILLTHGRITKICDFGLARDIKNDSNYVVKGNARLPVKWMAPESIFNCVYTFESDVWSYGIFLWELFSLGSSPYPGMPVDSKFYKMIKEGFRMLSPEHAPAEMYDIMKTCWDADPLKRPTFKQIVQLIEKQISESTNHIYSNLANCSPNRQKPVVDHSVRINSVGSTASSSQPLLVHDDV
T5 sequence (Q04912 25-1400): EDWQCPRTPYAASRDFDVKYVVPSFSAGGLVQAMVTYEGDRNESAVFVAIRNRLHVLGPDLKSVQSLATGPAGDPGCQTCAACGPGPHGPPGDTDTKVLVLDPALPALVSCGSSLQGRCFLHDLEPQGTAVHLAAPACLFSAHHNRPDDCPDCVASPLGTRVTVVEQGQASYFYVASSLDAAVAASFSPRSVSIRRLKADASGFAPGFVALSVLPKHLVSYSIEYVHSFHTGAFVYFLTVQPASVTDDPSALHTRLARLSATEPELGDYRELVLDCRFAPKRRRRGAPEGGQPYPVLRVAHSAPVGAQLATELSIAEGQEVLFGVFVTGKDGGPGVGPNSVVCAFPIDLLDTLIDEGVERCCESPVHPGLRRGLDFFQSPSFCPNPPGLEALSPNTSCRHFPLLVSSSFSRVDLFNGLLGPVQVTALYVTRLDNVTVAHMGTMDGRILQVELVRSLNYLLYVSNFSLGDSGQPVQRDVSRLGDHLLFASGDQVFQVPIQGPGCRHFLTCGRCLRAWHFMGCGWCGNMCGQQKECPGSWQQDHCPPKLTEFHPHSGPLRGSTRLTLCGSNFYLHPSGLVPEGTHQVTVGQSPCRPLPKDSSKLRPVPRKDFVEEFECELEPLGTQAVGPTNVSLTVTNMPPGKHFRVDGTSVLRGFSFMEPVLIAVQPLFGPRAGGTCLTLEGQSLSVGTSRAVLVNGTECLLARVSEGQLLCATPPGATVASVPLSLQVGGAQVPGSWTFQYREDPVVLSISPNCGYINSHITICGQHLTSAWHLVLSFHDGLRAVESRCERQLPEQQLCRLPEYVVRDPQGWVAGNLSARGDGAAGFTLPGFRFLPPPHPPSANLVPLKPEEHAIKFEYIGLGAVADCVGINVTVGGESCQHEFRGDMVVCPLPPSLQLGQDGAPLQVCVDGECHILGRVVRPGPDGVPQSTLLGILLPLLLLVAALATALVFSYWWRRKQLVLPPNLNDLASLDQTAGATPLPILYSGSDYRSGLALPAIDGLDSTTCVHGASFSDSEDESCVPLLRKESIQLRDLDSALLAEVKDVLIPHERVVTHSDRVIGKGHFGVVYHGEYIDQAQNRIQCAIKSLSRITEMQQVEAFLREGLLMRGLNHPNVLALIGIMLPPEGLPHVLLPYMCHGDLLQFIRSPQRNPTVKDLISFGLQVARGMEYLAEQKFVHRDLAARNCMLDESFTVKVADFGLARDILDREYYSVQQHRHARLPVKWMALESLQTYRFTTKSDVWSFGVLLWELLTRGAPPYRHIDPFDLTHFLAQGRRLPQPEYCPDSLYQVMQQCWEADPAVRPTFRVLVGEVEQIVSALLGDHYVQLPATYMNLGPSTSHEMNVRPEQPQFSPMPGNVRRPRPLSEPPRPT
T3 sequence (P07333 20-972): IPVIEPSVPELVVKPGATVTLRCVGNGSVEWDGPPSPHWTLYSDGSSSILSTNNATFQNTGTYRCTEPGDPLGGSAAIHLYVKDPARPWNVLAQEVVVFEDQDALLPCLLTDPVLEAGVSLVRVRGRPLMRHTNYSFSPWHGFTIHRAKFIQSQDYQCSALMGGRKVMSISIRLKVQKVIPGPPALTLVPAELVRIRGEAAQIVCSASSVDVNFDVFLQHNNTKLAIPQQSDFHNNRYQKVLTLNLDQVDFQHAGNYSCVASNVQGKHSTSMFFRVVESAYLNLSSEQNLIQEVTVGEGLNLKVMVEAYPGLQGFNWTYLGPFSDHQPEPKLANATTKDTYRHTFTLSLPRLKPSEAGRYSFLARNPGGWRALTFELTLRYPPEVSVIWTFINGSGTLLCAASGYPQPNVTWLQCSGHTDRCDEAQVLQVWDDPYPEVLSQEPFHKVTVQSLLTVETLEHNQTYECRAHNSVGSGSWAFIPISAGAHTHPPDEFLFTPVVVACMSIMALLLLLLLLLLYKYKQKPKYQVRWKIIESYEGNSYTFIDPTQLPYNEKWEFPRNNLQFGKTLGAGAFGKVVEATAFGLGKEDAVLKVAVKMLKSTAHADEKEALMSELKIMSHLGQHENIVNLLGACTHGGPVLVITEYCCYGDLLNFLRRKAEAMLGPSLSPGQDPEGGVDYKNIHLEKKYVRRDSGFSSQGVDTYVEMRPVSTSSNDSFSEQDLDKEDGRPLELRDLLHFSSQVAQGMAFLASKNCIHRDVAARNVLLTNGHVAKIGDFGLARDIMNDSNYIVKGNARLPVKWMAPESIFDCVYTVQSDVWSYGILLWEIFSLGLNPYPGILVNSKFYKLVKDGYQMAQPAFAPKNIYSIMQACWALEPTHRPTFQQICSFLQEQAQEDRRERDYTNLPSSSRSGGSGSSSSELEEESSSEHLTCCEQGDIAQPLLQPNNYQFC
T1 sequence (P09769 whole entry): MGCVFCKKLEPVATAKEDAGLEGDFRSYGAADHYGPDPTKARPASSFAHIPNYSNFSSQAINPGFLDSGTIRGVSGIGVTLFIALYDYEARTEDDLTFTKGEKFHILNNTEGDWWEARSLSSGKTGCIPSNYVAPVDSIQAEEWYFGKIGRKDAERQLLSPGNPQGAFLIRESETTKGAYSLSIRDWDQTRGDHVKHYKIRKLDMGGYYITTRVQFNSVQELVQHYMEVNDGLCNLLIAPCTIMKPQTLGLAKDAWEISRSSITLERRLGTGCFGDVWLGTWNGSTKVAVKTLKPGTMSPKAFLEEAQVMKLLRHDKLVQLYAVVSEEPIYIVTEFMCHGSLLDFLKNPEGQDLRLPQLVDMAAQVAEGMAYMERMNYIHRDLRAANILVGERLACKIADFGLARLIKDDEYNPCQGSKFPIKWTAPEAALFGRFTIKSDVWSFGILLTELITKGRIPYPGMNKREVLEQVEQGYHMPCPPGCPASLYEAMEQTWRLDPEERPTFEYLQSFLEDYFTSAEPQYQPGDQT

| Compound | IC50 (FGR) | IC50 (FLT3) | IC50 (FMS) | IC50 (KIT) | IC50 (RON) | GI50 (MV4−11) | GI50 (THP−1) | GI50 (Kasumi−1) |
| --- | --- | --- | --- | --- | --- | --- | --- | --- |
| Cc1c(C(=O)NCCNC(=O)[C@H](C)N(C)C(=O)/C=C/CN(C)C)c[nH]c1/C=C1\C(=O)Nc2ccc(F)cc21 [Compound 26, N-(2-((S)-2-((E)-4-(dimethylamino)-N-methylbut-2-enamido)propanamido)ethyl)-5-((Z)-(5-fluoro-2-oxoindolin-3-ylidene)methyl)-4-methyl-1H-pyrrole-3-carboxamide] | 100 to 1000 nM | < 10 nM | < 10 nM | < 10 nM | 100 to 1000 nM | < 10 nM | ≥ 1000 nM |  |
| Cc1cc(Nc2cc(NCCNC(=O)[C@@H]3CCCN3C(=O)/C=C/CN(C)C)nc(Nc3ccc(CC#N)cc3)n2)n[nH]1 [Compound 3] |  | < 10 nM |  | < 10 nM |  | 10 to 100 nM | ≥ 1000 nM | ≥ 1000 nM |
| C=CC(=O)N(C)[C@@H](C)C(=O)NCCNc1cc(Nc2ncc(-c3ccncc3)s2)nc(C)n1 [Compound 17, (2S)-2-[methyl(prop-2-enoyl)amino]-N-[2-[[2-methyl-6-[[5-(4-pyridyl)thiazol-2-yl]amino]pyrimidin-4-yl]amino]ethyl]propanamide] |  | < 10 nM |  | < 10 nM |  | < 10 nM | ≥ 1000 nM | < 10 nM |
| C=CC(=O)N(C)[C@@H](C)C(=O)NCCOc1cc(C)nc(Nc2ncc(-c3ccccc3)s2)c1 [Compound 12, (2S)—N-[2-[[2-methyl-6-[(5-phenylthiazol-2-yl)amino]-4-pyridyl]oxy]ethyl]-2-[methyl(prop-2-enoyl)amino]propanamide] |  | < 10 nM |  | < 10 nM |  | < 10 nM | ≥ 1000 nM | < 10 nM |
| Cc1cc(Nc2cc(NCCNC(=O)[C@H](C)N(C)C(=O)/C=C/CN(C)C)nc(Nc3ccc(CC#N)cc3)n2)n[nH]1 [Compound 1] | 10 to 100 nM | < 10 nM | < 10 nM | < 10 nM | 100 to 1000 nM | < 10 nM | ≥ 1000 nM | 100 to 1000 nM |
| C=CC(=O)N(C)[C@@H](C)C(=O)NCCNc1cc(Nc2ncc(-c3ccccc3)s2)nc(C)n1 [Compound 9, (2S)—N-[2-[[2-methyl-6-[(5-phenylthiazol-2-yl)amino]pyrimidin-4-yl]amino]ethyl]-2-[methyl(prop-2-enoyl)amino]propanamide] |  | < 10 nM |  | < 10 nM |  | < 10 nM | ≥ 1000 nM | < 10 nM |
| C=CC(=O)N(C)[C@@H](C)C(=O)NCCOc1cc(Nc2ncc(-c3ccccc3)s2)nc(C)n1 [Compound 13, (2S)—N-[2-[2-methyl-6-[(5-phenylthiazol-2-yl)amino]pyrimidin-4-yl]oxyethyl]-2-[methyl(prop-2-enoyl)amino]propanamide] |  | < 10 nM |  | < 10 nM |  | < 10 nM | ≥ 1000 nM | < 10 nM |
| C=CC(=O)N(C)[C@@H](C)C(=O)NCCNc1cc(Nc2cc(C3CCC3)[nH]n2)nc(Nc2ccc(CC#N)cc2)n1 [Compound 4, (2S)—N-[2-[[2-[4-(cyanomethyl)anilino]-6-[(5-cyclobutyl-1H-pyrazol-3-yl)amino]pyrimidin-4-yl]amino]ethyl]-2-[methyl(prop-2-enoyl)amino]propanamide] |  | < 10 nM |  | 10 to 100 nM |  | < 10 nM | 100 to 1000 nM | 100 to 1000 nM |
| CCC(=O)N(C)[C@@H](C)C(=O)NCCNc1cc(Nc2ncc(-c3ccccc3)s2)nc(C)n1 [Compound 10, (2S)—N-[2-[[2-methyl-6-[(5-phenylthiazol-2-yl)amino]pyrimidin-4-yl]amino]ethyl]-2-[methyl(propanoyl)amino]propanamide] |  | 10 to 100 nM |  | 10 to 100 nM |  | < 10 nM | ≥ 1000 nM | 10 to 100 nM |
| CC#CC(=O)N(C)[C@@H](C)C(=O)NCCNc1cc(Nc2cc(C3CCC3)[nH]n2)nc(Nc2ccc(CC#N)cc2)n1 [Compound 5, N-[(1S)-2-[2-[[2-[4-(cyanomethyl)anilino]-6-[(5-cyclobutyl-1H-pyrazol-3-yl)amino]pyrimidin-4-yl]amino]ethylamino]-1-methyl-2-oxo-ethyl]-N-methyl-but-2-ynamide] |  | < 10 nM |  | 10 to 100 nM |  | < 10 nM | ≥ 1000 nM | ≥ 1000 nM |
| CC#CC(=O)N(C)[C@@H](C)C(=O)NCCNc1cc(Nc2ncc(-c3ccncc3)s2)nc(C)n1 [Compound 18, N-methyl-N-[(1S)-1-methyl-2-[2-[[2-methyl-6-[[5-(4-pyridyl)thiazol-2-yl]amino]pyrimidin-4-yl]amino]ethylamino]-2-oxo-ethyl]but-2-ynamide] |  | < 10 nM |  | < 10 nM |  | < 10 nM | ≥ 1000 nM | < 10 nM |
